Laboratory results taken from article PMC8892092 (The Journal of Biological Chemistry, 2022).

Tests used:
LuHNL [1] = biological target: T1, LuHNL (Linum usitatissimum, UniProt P93243, V117T); format: binding; set-up: E. coli SHuffle T7
LuHNL [2] = biological target: T1, LuHNL
LuHNL [3] = biological target: T1, LuHNL; format: binding; set-up: E. coli SHuffle T7; remark: listed apart in the source
LuHNL [4] = biological target: LuHNL (Linum usitatissimum, UniProt P93243, V117T/F340A)
LuHNL [5] = biological target: T1, LuHNL; format: binding; set-up: E. coli SHuffle T7; remark: listed apart in the source
[6] = biological target: the molecule itself; experiment: crystal structure; X-ray crystal structures of N-His-LuHNL (ligand-free with glycerol, soaked with acetone cyanohydrin, soaked with (rac)-2-butanone cyanohydrin); sitting drop, 20 °C, 0.1 M BIS-TRIS pH 6.5, 20% PEG MME 5,000; space group P2_(1), two dimers per asymmetric unit

With CC[C@@](C)(O)C#N [(R)-BCN, (R)-2-butanone cyanohydrin] as the molecule, how does the “X-ray crystal structure, 1.72 Å” value (LuHNL [1]) read?
The value was “(R)-2-butanone cyanohydrin (BCN) complexed LuHNL (LuHNL_BCN) were determined”.

Which results are given for CC(C)(O)C#N [CNH, acetone cyanohydrin]?
Km (LuHNL [2]): 2.7 ± 0.3 mM; X-ray crystal structure, 1.58 Å (LuHNL [3]): The structures for acetone cyanohydrin (CNH) complexed LuHNL (LuHNL_CNH); Km (LuHNL [4]): 5.4 ± 2.3 mM

With NC(=O)c1ccc[n+]([C@@H]2O[C@H](COP(=O)(O)OP(=O)(O)OC[C@H]3O[C@@H](n4cnc5c(N)ncnc54)[C@H](O)[C@@H]3O)[C@@H](O)[C@H]2O)c1 [NAD^+] as the molecule, how does the “X-ray crystal structure, 1.48 Å; NAD+ quantitation” value (LuHNL [5]) read?
The value was “electron density of NAD^+ was observed in the crystal without the addition of exogenous NAD^+”.

B1: Hydroxynitrile lyase from Linum usitatissimum (LuHNL), N-terminally His-tagged (enzyme)
chain: MASLPVSFAKPDKNGVITCKAIMLKEAKLPGMSYADTVQIIDIQVDPPQNVELRVKMLCASVCRTDILTIEGFMAPTQFPKINGHEGVGIIESMGPDTKNFKVGDVIVAPTLGECQTCSSCRSGRTNFCQNYGANESALEPDGTSRFSYIDSDGKKKLLYYKLGCSTWTQYMVVDSNYATKLNEIAPELPPPHGSILSCAFATGYGAVWLDAAVQEGDSVAIFGVGSVGISAVIAAKELKAKQIIVVDRNEYKLKMAMELGATHCINSEKLPEGVTPSQAVRKLTPKEVGVDASIESSGYDVFMNEAMKAAIHGKAKTVITGEGIYENDRIFFDFKDFLFGGNVVGNVTGRVRIHSDFPGLLRKAQEPVIRAGMDKILGYDAATMKCKYEVDIREGTPALLKALEEVENVDCVKLVIKLNDY
modifications: S-nitrosylation of Cys265 proposed from the electron density in the crystal (not detected in LuHNL solution)
notes: Hydroxynitrile lyase from Linum usitatissimum, gene of GenBank AF024588.1 (protein AAB81956.1), which has Thr117; Each subunit holds one NAD+, two Zn2+ and one Mg2+; The gene was cloned between NdeI and BamHI of pET-15b; also called N-His-LuHNL; LuHNL-wild; source: SHuffle T7 Express E. coli, pET-15b, purified (Ni Sepharose, Mono Q)
With B1 as the molecule, how does the “stoichiometry N” value [6] read?
The value was 2.
